Assay [1] deals with db/db mice. In words: Chronic treatment of db/db mice: blood glucose and glucose tolerance. In kind it is in vivo, mouse. To be noted: 18 week old db/db mice; for blood glucose levels: 5 U/kg BW daily, data not shown; for blood glucose tolerance: 150 U/kg BW daily for 4 weeks. The method, then:
(§1) In a second set 18 week old db/db mice were treated with vehicle, NPH insulin, Degludec, or Lantus daily for 4 weeks (see FIG. 8). 18 wk old db/db mice were specifically used because by this age they have a diastolic dysfunction. The original protocol involved treating the mice with either NPH insulin (5 U/kg BW), Degludec (5 U/kg BW), or Lantus (5 U/kg BW). […] Other groups have reported that a higher dose of insulin is required to control hyperglycemia in db/db mice. The highest dose that had been reported to be safe, was 150 U/kg BW, which was then used for future experiments. Treating the mice with 150 U/kg BW of NPH insulin, Degludec, or Lantus improved blood glucose tolerance much more dramatically (FIG. 9). At the end of the 4 week treatment period, the cardiac energy metabolism and function was assessed via echocardiography. The Vevo 770 high resolution echocardiography imaging system was used to assess in vivo cardiac function was assessed in isoflurane anesthetized mice.

The test system of a further assay is db/db mouse hearts. In words: Isolated working heart perfusion, cardiac energy metabolism (acute treatment), db/db. To be noted: for glucose oxidation / palmitate oxidation: isolated working db/db mouse hearts, 10 wk old. The procedure:
(§2) The effect of three different types of insulin, human insulin, insulin degludec, and the M1 metabolite of insulin glargine, on cardiac metabolism was determined in adult, 10 weeks old mice using either healthy C57Bl6 wildtype mice or Type-2 diabetes db/db mice. Mice were fed a standard chow diet and kept in 12 hr light: 12 hr dark cycle. To test their acute effect energy metabolism, hearts were removed from fully anesthetized mice, and perfused as isolated working hearts with Krebs Henseleit buffer (118.5 mM NaCl, 1.2 mM MgSO4, 25 mM NaHCO3, 4.7 mM KCl, 1.2 mM KH2PO4, 2.5 mM CaCl2) supplemented with 0.8 mM palmitate bound to 3% fatty acid-free bovine serum albumin (BSA), 5 mM glucose, and 0.5 mM lactate. Hearts underwent aerobic perfusion for 72 min with vehicle or increasing amounts of insulin (0, 25, 50, 100 μU/ml), insulin Degludec (0, 100, 300, 1000 μU/ml), or the M1 metabolite of insulin Glargine (0, 25, 50, 100 μU/ml). Each concentration escalation step lasted 18 minutes. At the end of the heart perfusion hearts were immediately snap frozen in liquid N2 and stored at −80° C. See FIG. 1 In order to measure glucose oxidation, glycolysis, palmitate oxidation, and lactate oxidation [U-^14C] glucose, [5-^3H] glucose, [9, 10-^3H] palmitate, and [U-^14C] lactate, respectively, were added to the perfusate as described above in Example 1. Glycolysis and palmitate oxidation rates were determined based on the rates of ^3H2O production. To determine glucose oxidation and lactate oxidation rates ^14CO2 production was assessed.

A further assay has as its system C57bl/6 mouse hearts. In words: Isolated working heart perfusion, cardiac energy metabolism (acute treatment), C57bl/6. To be noted: for % ATP from glucose oxidation / % ATP from palmitate oxidation / cardiac efficiency: C57bl/6 mouse hearts; for glucose oxidation / palmitate oxidation: isolated working C57bl/6 mouse hearts, 10 wk old. The method, then: as §2
A further assay has as its system Akt. In words: Western Blot Analysis of cardiac Akt phosphorylation after acute treatment. To be noted: db/db mouse hearts. The procedure:
The phosphorylation status of several enzymes involved in insulin signaling were also assessed in the C57bl/6 and db/db mouse hearts treated acutely with insulin, Degludec, or Lantus, via Western Blot Analysis. Frozen heart issue was homogenized for 30 sec in homogenization buffer (50 mM Tris HCl, 10% glycerol, 1 mM EDTA, 0.02% Brij-35, 1 mM DTT, and protease and phosphatase inhibitors (Sigma)). After sitting on ice at least 10 min, tissue homogenates were centrifuged at 10,000×g for 20 min. The supernatant was then stored at −80° C. Protein concentration of supernatant was determined using the Bradford protein assay. After running samples on SDS-polyacrylamide gel electrophoresis, protein was transferred onto nitrocellulose membrane. Primary antibodies included pAkt Ser473 (Cell Signaling 9271), Akt (Cell Signaling 9272), pGSK3α/β Ser21/9 (Cell Signaling 9331), GSK3β (Cell Signaling 9315), pPDH Ser293 (Calbiochem AP1062), and PDH (Cell Signaling 2784). Protein bands were visualized on autoradiography film using enhanced chemiluminescence (Perkin Elmer) and quantified with Image J.
For orientation: Immunoblotting shows a protein as a band on a membrane.

Assay [2] concerns db/db mice. In words: Chronic treatment of db/db mice: in vivo cardiac function by echocardiography. The note with it: chronic treatment 4 weeks. The arrangement: species or system mouse. The method, then: The long-term effects of insulin treatment on cardiac function was assessed in two different settings. In acute treatments, measurements were performed in isolated working hearts from either wildtype mice (C57Bl) or mice with a diabetes type-2 phenotype (db/db mice). In a second chronic setting, db/db animals were treated for 4 weeks with daily administration of different high doses of insulins to achieve similar effects on systemic hypergycaemia. At the end of the chronic study, effects on cardiac function was assessed by echocardiography.
as §1

“Also recorded” adds a separate entry of the source.

As to Degludec, in the assay with db/db mice [1], the blood glucose levels entry is reported as “did not reduce” and the blood glucose tolerance entry was “improved”. Moreover, in the assay on db/db mouse hearts (db/db mouse hearts), the “% ATP from glucose oxidation” value stood at 5% and the “% ATP from palmitate oxidation” value is 75%. For the same substance, in the assay on db/db mouse hearts, the glucose oxidation result is reported as “not” and the palmitate oxidation entry is on record as “not”. Further, in the assay on C57bl/6 mouse hearts, the “% ATP from glucose oxidation” value was determined as 12%, the “% ATP from palmitate oxidation” value came to 62%, the glucose oxidation result is “not” and the palmitate oxidation entry is given as “not”.

Take “Gly (A21) human insulin [M1-metabolite of insulin glargine]”: the cardiac efficiency result in the assay on db/db mouse hearts (db/db mouse hearts) was “improved”. For the same substance, in the assay with db/db mouse hearts, the glucose oxidation entry was “able to stimulate” and the palmitate oxidation entry is reported as “inhibit”. In the assay with C57bl/6 mouse hearts, the cardiac efficiency result is “improved”, the glucose oxidation result was “able to stimulate” and the palmitate oxidation result is “inhibit”.

For the substance “Gly (A21), Arg (B31), Arg (B32) human insulin [Lantus]”, the pAkt entry in the assay with Akt was “significantly increased”. In addition, in the assay on db/db mice [2], the cardiac output entry is given as “significantly increased; also recorded: improved”, the cardiac stroke volume entry is on record as “significantly increased; also recorded: improved” and the “in vivo cardiac function” value was “improved”. Also, the “in vivo cardiac function” value in the assay with db/db mice [2] (listed as lantus) is “improves”. Also, in the assay with db/db mice [1], the blood glucose levels entry is on record as “did not reduce” and the blood glucose tolerance result is listed as “improved”. Further, in the assay on db/db mouse hearts (db/db mouse hearts), the “% ATP from glucose oxidation” value was determined as 14% and the “% ATP from palmitate oxidation” value amounted to 56%. In the assay on db/db mouse hearts, the glucose oxidation entry was “stimulates” and the palmitate oxidation result is reported as “decreases”. In the assay on C57bl/6 mouse hearts, the “% ATP from glucose oxidation” value is 30%, the “% ATP from palmitate oxidation” value is reported as 37%, the cardiac efficiency entry is given as “improves” and the glucose oxidation result was “stimulates”. For the same substance, the palmitate oxidation result in the assay with C57bl/6 mouse hearts is “decreases”.

Regarding NPH insulin: long acting basal insulin, in the assay on db/db mice [1], the blood glucose levels result is given as “did not reduce” and the blood glucose tolerance entry is “improved”.

insulin: human insulin: in the assay on db/db mouse hearts (db/db mouse hearts), the “% ATP from glucose oxidation” value turned out to be 13% and the “% ATP from palmitate oxidation” value came out at 53%. For the same substance, in the assay with C57bl/6 mouse hearts, the “% ATP from glucose oxidation” value is 18% and the “% ATP from palmitate oxidation” value worked out at 55%.

Values taken from patent US20180369342A1, “CARDIAC METABOLIC EFFECT OF LANTUS” (Sanofi-Aventis Deutschland GmbH, priority 2015, published 2018).
